Laboratory results: ChEMBL document CHEMBL1201862, “PubChem BioAssay data set” (2004)
Active and inactive are the calls of the source.

Experiments:
Jurkat = test: antigen receptor-induced NF-kB inhibitors, dose response, Jurkat, luciferase reporter, luminescence, B- and T-cell (AID 489004); format: functional, cell-based; details: Homo sapiens;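 also: NF-kB luciferase reporter Jurkat cells stimulated with PMA plus ionomycin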
[1] = cytotoxicity in HEK-293T NF-kB-Luc cells, dose response, cytotoxicity control for B/T-cell NF-kB inhibitor project, cell-based, uHTS hits (AID 489019); format: functional;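 also: IC50 reflects cytotoxicity as loss of cell viability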
Melanocortin receptor 4 = Melanocortin receptor 4 (Homo sapiens, UniProt P32245); test: MC4R antagonist potency on cAMP, dose response, cell-based, TR-FRET, biased antagonists (AID 602298); format: functional;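 also: antagonist potency against agonist-stimulated cAMP production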
Sequence of Melanocortin receptor 4 (P32245 whole entry): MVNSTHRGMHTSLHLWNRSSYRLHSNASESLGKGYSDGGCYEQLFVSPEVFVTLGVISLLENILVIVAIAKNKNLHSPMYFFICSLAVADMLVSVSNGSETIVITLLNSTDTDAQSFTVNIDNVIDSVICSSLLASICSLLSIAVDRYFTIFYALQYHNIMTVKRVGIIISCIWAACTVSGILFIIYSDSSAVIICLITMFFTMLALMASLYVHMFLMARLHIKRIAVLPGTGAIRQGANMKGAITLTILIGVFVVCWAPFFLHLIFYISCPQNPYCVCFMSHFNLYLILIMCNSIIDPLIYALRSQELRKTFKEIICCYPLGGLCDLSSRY

Protein RecA = molecular target: T1, Protein RecA (Mycobacterium tuberculosis, UniProt P9WHJ3); test: Fluorescence Cell-Free Homogeneous Dose Retest to Identify Inhibitors of RecA-Intein Splicing Activity. [Related pubchem assays (depositor defined):AID2097, AID2223, AID489010, AID492950]; format: functional
T1 sequence (P9WHJ3 whole entry): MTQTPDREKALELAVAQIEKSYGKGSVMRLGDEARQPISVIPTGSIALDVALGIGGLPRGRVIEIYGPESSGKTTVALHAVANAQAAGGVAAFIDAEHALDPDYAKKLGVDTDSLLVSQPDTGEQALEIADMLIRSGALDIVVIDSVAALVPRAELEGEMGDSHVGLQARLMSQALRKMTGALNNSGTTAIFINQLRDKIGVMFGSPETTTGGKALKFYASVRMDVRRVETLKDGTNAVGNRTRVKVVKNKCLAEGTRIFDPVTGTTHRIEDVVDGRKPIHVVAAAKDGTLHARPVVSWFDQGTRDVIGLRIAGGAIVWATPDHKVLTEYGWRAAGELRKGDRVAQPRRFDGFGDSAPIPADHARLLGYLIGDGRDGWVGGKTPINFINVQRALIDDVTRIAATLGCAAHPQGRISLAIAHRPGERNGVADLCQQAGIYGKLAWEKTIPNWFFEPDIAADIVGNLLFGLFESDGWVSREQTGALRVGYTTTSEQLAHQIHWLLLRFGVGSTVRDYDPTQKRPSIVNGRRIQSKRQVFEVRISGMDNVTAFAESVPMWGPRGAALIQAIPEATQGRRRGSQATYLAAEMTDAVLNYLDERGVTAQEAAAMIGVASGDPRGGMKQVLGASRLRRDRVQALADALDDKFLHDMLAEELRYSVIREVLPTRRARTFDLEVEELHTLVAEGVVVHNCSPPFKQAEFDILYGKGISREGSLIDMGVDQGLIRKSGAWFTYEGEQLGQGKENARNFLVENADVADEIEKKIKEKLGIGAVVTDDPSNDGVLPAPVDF

[2] = Vero cell cytotoxicity, dose response, cytotoxicity control for Vif-APOBEC3G degradation inhibitor project, Vero cells (AID 1117358); format: functional; details: Human immunodeficiency virus 1, Vero
[3] = Shn3 3'UTR reporter inhibitors, dose response, cell-based, Clone20 osteoblasts, firefly luciferase, cherry-picked (AID 624132); format: functional;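 also: firefly luciferase luminescence from reporter carrying the Shn3 3'UTR in osteoblasts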
[4] = nonselective inhibitors of cellular cAMP signaling, dose response, counter-screen for MC4R biased antagonist project, cell-based, TR-FRET cAMP detection (AID 602305); format: functional;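 also: U2OS cells stimulated with forskolin near its EC80 as the cAMP inducer; potency is for inhibition of forskolin-stimulated cAMP signaling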
[5] = molecular target: T2, Heat shock factor protein 1 (Mus musculus, UniProt P38532); test: inhibition of MG132-induced HSE-luciferase signal, confirmation, cell-based, NIH3T3, luminescence, dose retest (AID 2382); format: functional;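 also: NIH3T3 fibroblasts with HSF1-driven luciferase reporter stressed by proteasome inhibitor MG132; luminescence from HSF1-driven luciferase expression after 8 hours of MG132 stress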
T2 sequence (P38532 whole entry): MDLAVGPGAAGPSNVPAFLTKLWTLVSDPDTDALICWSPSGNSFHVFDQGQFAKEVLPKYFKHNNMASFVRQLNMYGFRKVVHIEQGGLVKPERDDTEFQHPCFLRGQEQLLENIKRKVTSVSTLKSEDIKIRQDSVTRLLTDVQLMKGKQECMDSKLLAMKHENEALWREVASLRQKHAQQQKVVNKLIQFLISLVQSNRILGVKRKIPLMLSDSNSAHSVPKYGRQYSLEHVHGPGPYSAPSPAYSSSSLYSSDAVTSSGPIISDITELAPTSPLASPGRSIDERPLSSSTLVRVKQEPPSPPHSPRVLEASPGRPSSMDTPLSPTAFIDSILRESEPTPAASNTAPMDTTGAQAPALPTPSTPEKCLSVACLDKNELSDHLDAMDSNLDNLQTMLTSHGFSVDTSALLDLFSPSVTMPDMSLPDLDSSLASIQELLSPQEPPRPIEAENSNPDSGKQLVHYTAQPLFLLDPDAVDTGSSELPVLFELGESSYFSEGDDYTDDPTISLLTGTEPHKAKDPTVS

[6] = Luminescence-based dose response cell-based high throughput screening assay for cytotoxic compounds using the IEC-6 intestinal epithelial cell line. [Related pubchem assays: 1858 (Summary AID.), 1825 (Counterscreen.), 1907 (Confirmation screen.)]; format: functional
[7] = growth suppression of beta-catenin-knockout colon cells, dose response, cell-based, HCT116, human colon tumor (AID 1045); format: functional;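 also: HCT116 colon tumor cells with beta catenin knocked out; cells exposed to compound for 60 hours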
[8] = growth suppression of PTEN-null colon cells, dose response, cell-based, HCT116 PTEN knockout (AID 1047); format: functional;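 also: HCT116 colon tumor cells with PTEN knocked out; cells exposed to compound for 60 hours before readout; potency for loss of cell viability measured by luminescence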
[9] = control 3'UTR Renilla luciferase suppression, dose response, counter-screen for Shn3 inhibitor project, cell-based, Clone20-Shn3RL, cherry-picked (AID 624133); format: functional
[10] = inhibitors of Vif binding to APOBEC3G peptide, primary screen, biochemical, TR-FRET, GST-Vif 1-94, biotin-A3G peptide, dose response retest (AID 1117319); format: functional;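 also: TR-FRET signal of purified GST-Vif binding a biotinylated A3G peptide; inhibitors lower the FRET signal by blocking Vif and A3G binding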
[11] = molecular target: T3, Replicative DNA helicase DnaB (Mycobacterium tuberculosis, UniProt P9WMR3); test: DnaB intein splicing inhibitors, dose response, biochemical, cell-free fluorescence (AID 449749); format: functional
T3 sequence (P9WMR3 whole entry): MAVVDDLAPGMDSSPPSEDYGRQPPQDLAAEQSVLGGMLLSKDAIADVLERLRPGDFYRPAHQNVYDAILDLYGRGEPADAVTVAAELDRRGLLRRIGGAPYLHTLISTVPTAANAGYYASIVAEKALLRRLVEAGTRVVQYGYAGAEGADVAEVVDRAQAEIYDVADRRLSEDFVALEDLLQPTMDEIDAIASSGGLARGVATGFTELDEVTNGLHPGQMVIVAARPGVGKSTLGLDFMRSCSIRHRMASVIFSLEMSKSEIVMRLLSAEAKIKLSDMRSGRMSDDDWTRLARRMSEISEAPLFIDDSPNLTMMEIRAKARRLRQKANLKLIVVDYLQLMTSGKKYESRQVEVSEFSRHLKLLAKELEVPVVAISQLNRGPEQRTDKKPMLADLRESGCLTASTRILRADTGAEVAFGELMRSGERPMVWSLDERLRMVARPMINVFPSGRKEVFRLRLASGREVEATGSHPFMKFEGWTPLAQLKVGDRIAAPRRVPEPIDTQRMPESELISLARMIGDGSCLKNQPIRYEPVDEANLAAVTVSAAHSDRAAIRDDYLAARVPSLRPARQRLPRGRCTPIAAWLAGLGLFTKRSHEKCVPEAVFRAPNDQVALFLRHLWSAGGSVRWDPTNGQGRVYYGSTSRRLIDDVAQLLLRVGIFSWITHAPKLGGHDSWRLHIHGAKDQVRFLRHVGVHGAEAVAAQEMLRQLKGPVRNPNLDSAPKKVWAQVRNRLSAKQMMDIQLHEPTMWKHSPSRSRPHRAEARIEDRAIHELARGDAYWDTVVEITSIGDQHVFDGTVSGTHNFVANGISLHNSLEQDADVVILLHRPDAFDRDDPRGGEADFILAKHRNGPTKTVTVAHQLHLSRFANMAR

[12] = HepG2 cell cytotoxicity, dose response, cytotoxicity control for Shn3 inhibitor project, CellTiter-Glo, cherry-picked (AID 624134); format: functional, cell-based
[13] = molecular target: T4, Voltage-gated N-type calcium channel alpha-1B subunit/Amyloid beta A4 precursor protein-binding family A member 1 (Homo sapiens, UniProt Q00975+Q02410); test: disruptors of Mint-PDZ/N-type channel peptide interaction – biochemical, HTRF, set 2, SAR follow-up (AID 434980); format: functional
T4 sequence (Q00975 whole entry): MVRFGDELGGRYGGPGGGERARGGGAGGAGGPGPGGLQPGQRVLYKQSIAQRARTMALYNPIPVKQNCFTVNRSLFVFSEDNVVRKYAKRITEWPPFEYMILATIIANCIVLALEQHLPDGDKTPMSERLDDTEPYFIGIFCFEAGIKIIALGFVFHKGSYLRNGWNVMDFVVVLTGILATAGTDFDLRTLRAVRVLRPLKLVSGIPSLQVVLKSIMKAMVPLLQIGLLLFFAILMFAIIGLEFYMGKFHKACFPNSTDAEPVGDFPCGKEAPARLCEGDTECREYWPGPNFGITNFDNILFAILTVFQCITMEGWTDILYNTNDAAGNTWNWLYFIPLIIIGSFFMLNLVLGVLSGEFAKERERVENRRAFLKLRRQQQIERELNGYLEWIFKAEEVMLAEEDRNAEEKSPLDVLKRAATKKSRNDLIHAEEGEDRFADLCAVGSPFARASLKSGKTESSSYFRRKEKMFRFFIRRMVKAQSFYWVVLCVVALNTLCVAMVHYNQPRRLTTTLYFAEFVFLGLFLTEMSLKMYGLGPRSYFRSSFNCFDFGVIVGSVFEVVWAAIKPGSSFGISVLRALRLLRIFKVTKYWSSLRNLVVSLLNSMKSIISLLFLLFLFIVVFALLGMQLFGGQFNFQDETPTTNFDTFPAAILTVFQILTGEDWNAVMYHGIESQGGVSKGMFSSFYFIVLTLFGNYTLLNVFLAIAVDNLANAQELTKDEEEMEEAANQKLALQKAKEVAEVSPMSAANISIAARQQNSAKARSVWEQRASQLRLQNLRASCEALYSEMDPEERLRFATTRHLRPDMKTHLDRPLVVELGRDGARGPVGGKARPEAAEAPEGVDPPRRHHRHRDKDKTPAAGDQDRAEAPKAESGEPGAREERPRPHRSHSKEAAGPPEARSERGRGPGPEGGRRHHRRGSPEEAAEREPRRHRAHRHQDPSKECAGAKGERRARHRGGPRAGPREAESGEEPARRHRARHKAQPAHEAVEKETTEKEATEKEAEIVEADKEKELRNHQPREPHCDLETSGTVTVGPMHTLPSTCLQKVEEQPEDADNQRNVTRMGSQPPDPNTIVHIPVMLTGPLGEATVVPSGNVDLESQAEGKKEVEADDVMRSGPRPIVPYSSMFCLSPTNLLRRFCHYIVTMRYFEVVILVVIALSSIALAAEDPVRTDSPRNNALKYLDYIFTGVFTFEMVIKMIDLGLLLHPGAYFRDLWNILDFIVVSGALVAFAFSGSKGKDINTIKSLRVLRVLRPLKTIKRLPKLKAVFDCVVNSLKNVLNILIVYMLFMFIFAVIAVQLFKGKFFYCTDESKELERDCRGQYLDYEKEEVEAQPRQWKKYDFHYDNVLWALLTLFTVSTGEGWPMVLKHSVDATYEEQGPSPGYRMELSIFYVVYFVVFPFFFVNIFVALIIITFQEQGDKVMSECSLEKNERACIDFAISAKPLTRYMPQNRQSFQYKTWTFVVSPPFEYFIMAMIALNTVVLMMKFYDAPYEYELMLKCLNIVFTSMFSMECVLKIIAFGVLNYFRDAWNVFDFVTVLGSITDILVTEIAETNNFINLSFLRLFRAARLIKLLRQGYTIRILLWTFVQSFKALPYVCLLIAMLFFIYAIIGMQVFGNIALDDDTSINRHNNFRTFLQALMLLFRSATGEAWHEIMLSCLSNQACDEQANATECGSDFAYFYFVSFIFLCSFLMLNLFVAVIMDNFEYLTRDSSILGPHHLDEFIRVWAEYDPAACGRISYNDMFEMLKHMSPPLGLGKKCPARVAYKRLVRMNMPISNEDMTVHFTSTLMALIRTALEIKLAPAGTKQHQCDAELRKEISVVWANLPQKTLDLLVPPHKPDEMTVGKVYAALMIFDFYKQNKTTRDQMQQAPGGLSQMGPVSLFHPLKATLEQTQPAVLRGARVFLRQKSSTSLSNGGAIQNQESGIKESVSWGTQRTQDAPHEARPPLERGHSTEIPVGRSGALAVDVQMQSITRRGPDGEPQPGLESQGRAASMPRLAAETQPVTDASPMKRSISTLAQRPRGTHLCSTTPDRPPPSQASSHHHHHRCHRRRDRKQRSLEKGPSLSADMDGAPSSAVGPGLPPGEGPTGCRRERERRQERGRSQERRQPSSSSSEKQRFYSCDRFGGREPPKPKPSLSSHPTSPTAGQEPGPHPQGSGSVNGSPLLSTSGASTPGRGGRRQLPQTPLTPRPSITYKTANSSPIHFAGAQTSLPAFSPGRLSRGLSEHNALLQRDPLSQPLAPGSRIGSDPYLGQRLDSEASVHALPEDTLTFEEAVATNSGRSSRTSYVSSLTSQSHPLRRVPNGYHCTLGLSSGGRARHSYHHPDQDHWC
T4 sequence (Q02410 whole entry): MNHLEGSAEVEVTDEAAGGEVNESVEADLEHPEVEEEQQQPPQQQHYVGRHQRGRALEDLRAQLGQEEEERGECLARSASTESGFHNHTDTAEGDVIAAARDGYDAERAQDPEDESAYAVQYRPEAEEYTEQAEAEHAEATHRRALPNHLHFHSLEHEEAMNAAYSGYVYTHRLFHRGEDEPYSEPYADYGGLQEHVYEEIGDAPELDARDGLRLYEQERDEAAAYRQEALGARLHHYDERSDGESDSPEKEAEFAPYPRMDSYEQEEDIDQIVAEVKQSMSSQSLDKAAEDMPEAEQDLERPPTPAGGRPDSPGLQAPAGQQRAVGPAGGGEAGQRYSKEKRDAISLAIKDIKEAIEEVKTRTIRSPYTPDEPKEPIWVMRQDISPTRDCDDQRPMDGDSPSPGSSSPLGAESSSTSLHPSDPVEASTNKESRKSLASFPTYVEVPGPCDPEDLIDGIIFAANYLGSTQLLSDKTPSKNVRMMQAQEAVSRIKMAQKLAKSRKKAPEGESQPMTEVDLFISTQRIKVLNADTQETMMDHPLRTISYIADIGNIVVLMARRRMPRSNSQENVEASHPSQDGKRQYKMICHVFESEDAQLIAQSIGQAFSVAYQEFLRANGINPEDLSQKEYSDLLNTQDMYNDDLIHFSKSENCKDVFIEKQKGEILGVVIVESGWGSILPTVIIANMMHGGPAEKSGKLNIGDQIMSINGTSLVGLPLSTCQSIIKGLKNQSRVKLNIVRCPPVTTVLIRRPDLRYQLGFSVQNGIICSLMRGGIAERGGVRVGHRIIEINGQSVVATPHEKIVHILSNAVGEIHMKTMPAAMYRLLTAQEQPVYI

SUMO E1/E2 = SUMO E1/E2 (Homo sapiens, UniProt P63279+Q9UBE0+Q9UBT2); test: SAR analysis of SUMOylation using HTRF in an in-Vitro dose response assay. [Related pubchem assays (depositor defined):AID2006, AID2011, AID2018, AID2069, AID2658]; format: functional
Sequence of SUMO E1/E2 (Q9UBE0 whole entry): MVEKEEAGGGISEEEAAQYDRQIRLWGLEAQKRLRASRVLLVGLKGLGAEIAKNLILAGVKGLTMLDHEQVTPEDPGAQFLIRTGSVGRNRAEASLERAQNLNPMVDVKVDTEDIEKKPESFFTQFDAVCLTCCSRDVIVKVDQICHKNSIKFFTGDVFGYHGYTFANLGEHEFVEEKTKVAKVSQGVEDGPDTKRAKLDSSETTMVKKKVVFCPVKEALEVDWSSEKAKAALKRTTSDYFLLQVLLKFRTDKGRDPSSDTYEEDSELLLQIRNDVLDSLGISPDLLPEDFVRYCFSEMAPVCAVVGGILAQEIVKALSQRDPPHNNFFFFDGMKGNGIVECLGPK
Sequence of SUMO E1/E2 (Q9UBT2 whole entry): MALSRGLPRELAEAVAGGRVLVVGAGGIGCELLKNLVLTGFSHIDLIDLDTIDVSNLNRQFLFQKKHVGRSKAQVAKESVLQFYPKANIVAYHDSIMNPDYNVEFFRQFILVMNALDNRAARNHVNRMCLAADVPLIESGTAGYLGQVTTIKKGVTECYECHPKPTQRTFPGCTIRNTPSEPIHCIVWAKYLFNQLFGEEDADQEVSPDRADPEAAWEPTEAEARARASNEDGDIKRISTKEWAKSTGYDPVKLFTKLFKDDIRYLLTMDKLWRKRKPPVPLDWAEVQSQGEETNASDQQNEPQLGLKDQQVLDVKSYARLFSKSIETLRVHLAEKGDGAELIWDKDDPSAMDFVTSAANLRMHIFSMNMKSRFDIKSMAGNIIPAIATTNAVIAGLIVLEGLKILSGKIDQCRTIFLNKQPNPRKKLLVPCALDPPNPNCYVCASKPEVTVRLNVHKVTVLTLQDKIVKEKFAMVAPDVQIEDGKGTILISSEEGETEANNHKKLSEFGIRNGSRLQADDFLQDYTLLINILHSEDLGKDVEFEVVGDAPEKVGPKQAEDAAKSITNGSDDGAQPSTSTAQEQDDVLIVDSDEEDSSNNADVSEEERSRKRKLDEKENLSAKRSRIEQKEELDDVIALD
Sequence of SUMO E1/E2 (P63279 whole entry): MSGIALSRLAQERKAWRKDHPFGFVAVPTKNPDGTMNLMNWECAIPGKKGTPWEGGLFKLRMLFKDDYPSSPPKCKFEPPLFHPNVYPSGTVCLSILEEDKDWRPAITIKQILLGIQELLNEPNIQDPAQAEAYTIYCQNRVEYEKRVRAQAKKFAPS

[14] = molecular target: T4, Voltage-gated N-type calcium channel alpha-1B subunit/Amyloid beta A4 precursor protein-binding family A member 1; test: disruptors of Mint-PDZ/N-type channel peptide interaction – biochemical, HTRF, SAR follow-up (AID 2489); format: functional
[15] = molecular target: 5-hydroxytryptamine receptor 5A (Homo sapiens, UniProt P47898); test: Counterscreen for agonists of OPRM1-OPRD1 heterodimerization: luminescence-based cell-based high throughput dose response assay to identify agonists of 5-hydroxytryptamine (serotonin) 5A receptor (HTR5A). [Related pubchem assays (depositor defined):AID504326, AID504355, AID504692, AID504904, AID504905]; format: functional
Sequence of 5-hydroxytryptamine receptor 5A (P47898 whole entry): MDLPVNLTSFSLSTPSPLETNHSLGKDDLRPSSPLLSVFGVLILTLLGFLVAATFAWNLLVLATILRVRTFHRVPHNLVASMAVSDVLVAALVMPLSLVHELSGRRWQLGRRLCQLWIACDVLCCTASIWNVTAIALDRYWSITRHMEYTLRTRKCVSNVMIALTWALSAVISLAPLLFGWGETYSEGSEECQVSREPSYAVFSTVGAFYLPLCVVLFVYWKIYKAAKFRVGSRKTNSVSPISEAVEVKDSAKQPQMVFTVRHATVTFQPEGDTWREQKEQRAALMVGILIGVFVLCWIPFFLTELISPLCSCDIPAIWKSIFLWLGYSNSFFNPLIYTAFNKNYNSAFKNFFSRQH

H4 [16] = test: Inhibitors of Prion Protein 5' UTR mRNA Measured in Cell-Based System Using Plate Reader - 2078-01_Inhibitor_Dose_DryPowder_Activity. [Related pubchem assays (depositor defined):AID488894]; format: functional; details: Homo sapiens
H4 [17] = test: inhibitors of control reporter signal in H4 cells – cell-based, plate reader, dry powder samples, counter-screen for prion reporter project, dose response (AID 540255); format: functional; details: Homo sapiens
INS1 [18] = test: inhibitors of cytokine-induced nitrite release, dose response, cell-based, Griess absorbance, INS-1E, dry powder (AID 488866); format: functional; details: Rattus norvegicus
[19] = cytotoxicity in HMLE control line with eGFP shRNA, dose response, counter-screen for HMLE_sh_ECad selective toxicity project, cell-based, HMLE_sh_eGFP, luminescence (AID 463074); format: functional, Homo sapiens;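 also: HMLE human mammary epithelial cells expressing control shRNA against eGFP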
INS1 [20] = test: beta cell apoptosis inhibitors, cytokine rescue, dose response, luminescence, retest (AID 449756); format: functional, cell-based; details: Rattus norvegicus;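 also: cell death triggered by IL-1 beta plus TNF-alpha plus IFN-gamma mixture; protective hits raise ATP signal compared with cytokine alone wells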
[21] = Luminescence Cell-Based Dose Retest to Confirm Inhibitors of Cancer Stem Cells. [Related pubchem assays (depositor defined):AID2717, AID2721]; format: functional; details: Homo sapiens

Q: With `C#CC(=O)N(c1cc(OC)ccc1OC)C(C(=O)NC1CCCC1)c1cccs1` (stereo unspecified) as the compound, how does the IC50 (Jurkat) read?
A: The IC50 was 0.23 µM (active).

Q: And the IC50 [1]?
A: Its IC50 is 55.6 µM (inactive).

Q: What about the IC50 (Melanocortin receptor 4) of the same compound?
A: Its IC50 is > 64.6 µM (inactive).

Q: And the EC50 (Protein RecA)?
A: The EC50 was 2.46 µM (active).

Q: What about the CC50 [2] of the same compound?
A: Its CC50 is 0.087 µM (active).

Q: What about the AC50 [3] of the same compound?
A: The AC50 was 4.57 µM (active).

Q: What about the IC50 [4] of the same compound?
A: The IC50 was > 64.6 µM (inactive).

Q: And the EC50 [5]?
A: Its EC50 is 0.692 µM (active).

Q: What about the IC50 [6] of the same compound?
A: The IC50 was 0.096 µM (active).

Q: What about the EC50 [7] of the same compound?
A: The EC50 was 3.99 µM (active).

Q: What about the EC50 [8] of the same compound?
A: The EC50 was 4.13 µM (active).

Q: And the AC50 [9]?
A: Its AC50 is 0.563 µM (active).

Q: And the IC50 [10]?
A: Its IC50 is > 100 µM (active).

Q: What about the AC50 [11] of the same compound?
A: The AC50 was 1.94 µM (active).

Q: What about the AC50 [12] of the same compound?
A: The AC50 was 1.25 µM (active).

Q: Which IC50 [13] does the source give for `Cc1ccccc1CNC(=O)COC(=O)c1cc(-c2ccco2)nc2ccccc12` here?
A: The IC50 was 10.9 µM (active).

Q: And the IC50 (SUMO E1/E2)?
A: The IC50 was 3.83 µM (active).

Q: What about the IC50 [14] of the same compound?
A: Its IC50 is 20.2 µM (active).

Q: With `C=CCN1C[C@@H](C)N(C(c2ccc(C(=O)N(CC)CC)cc2)c2cccc(OC)c2)C[C@@H]1C` (stereo partly specified) as the compound, how does the EC50 [15] read?
A: The EC50 was > 92.5 µM (inactive).

Q: Which AC50 (H4 [16]) does the source give for `CCCCc1ccc(-n2nc3cc(Cl)c(C(=O)NC(C)(C)C)cc3n2)cc1` here?
A: The AC50 was 0.032 µM (active).

Q: What about the AC50 (H4 [17]) of the same compound?
A: The AC50 was < 0.02 µM (active).

Q: With `COc1ccc(S(=O)(=O)N(C)C[C@@H]2Oc3c(NC(=O)Nc4ccccc4-c4ccccc4)cccc3C(=O)N([C@@H](C)CO)C[C@H]2C)cc1` as the compound, how does the AC50 (INS1 [18]) read?
A: Its AC50 is 33.4 µM (active).

Q: With `Cc1oc(/N=C/c2ccccc2)c(C#N)c1C` as the compound, how does the EC50 [5] read?
A: The EC50 was > 195 µM (not active).

Q: What about the AC50 [19] of the same compound?
A: Its AC50 is 33.8 µM (active).

Q: And the AC50 (INS1 [20])?
A: Its AC50 is > 260 µM (inactive).

Q: What about the AC50 [21] of the same compound?
A: Its AC50 is > 195 µM (inactive).
